Measured values as given in US5442043A, “Peptide conjugate” (Takeda Chemical Industries, Ltd., priority 1992, dated 1995).
Bridge positions count the residues as written; N and C are the ends. Peptide text beside a SMILES is read from it. I, II: the chains in the order shown.

Columns and labels:
[1] = molecular target: T1, insulin receptor on the capillary endothelial cell (Bos taurus, UniProt F1MV64); assay: Competitive inhibition of 125I-insulin binding on bovine brain microvessel endothelial cell monolayers
T1 construct: endogenous in cells; host or cells: primary bovine brain microvessel endothelial cell monolayers
Description: In accordance with the description by Ronald T. Borchart et al. of the United States in "Characteristics of the Large Neutral Amino Acid Transport System of Bovine Brain Microvessel Endothelial Cell Monolayers" [Journal of Neurochemistry, Vol. 47, pp. 484-488 (1986)], bovine brain microvessel endothelial cells were separated in a monolayer, whose affinity for the receptor on the endothelial cell was determined.

[2] = compared with natural insulin; cited from earlier work

T1 sequence (F1MV64 28-1382): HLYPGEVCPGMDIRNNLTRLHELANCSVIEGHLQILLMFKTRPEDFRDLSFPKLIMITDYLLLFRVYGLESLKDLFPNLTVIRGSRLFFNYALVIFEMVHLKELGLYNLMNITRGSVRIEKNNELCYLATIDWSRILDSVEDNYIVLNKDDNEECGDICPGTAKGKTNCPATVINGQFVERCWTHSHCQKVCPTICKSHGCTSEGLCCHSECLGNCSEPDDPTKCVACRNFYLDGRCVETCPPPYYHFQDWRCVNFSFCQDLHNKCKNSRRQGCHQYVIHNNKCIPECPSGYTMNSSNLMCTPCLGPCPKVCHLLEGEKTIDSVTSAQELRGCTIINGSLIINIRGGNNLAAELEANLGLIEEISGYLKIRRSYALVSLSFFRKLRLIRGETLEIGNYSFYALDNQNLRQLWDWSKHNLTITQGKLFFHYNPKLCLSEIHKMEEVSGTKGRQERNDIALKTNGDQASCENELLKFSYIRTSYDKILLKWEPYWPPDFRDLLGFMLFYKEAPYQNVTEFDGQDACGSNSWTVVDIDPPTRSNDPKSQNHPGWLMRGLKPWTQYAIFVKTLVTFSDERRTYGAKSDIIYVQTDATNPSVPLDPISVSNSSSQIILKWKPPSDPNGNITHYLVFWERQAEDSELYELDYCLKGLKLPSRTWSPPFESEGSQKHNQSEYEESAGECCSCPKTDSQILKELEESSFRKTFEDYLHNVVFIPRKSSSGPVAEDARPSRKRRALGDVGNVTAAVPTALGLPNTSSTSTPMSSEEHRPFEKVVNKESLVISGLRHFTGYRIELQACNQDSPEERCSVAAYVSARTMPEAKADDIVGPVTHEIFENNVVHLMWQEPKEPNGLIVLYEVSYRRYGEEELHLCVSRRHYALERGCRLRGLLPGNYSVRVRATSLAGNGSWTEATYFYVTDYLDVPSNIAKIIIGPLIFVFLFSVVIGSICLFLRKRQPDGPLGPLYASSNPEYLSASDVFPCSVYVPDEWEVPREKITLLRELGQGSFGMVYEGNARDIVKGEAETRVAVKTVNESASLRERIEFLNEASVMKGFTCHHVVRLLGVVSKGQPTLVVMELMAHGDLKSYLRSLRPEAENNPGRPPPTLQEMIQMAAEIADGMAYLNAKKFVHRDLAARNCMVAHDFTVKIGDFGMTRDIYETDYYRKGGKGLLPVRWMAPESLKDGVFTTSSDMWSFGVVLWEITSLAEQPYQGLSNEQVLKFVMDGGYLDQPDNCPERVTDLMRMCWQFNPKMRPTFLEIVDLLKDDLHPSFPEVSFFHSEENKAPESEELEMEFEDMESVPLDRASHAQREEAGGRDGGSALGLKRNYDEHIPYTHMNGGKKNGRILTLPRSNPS

Row | Molecule | 125I-insulin binding ratio (%) after addition of non-labeled compound ([1]; addition concentration 1.0 × 10 μM) [%] | 125I-insulin binding ratio (%) after addition of non-labeled compound ([1]; addition concentration 1.0 × 10^2 μM (first line so printed)) [%] | 125I-insulin binding ratio (%) after addition of non-labeled compound ([1]; addition concentration 1.0 × 10^2 μM (second line so printed)) [%] | Affinity for the insulin receptor on the capillary endothelial cell (in words) ([1]; fragments obtained by solid phase synthesis, Examples 4 and 5) | Affinity for the receptor on the cerebral capillary endothelial cell (in words) ([1]; fragments obtained by trypsin digestion, Examples 1 and 2) | Insulin activity (in words) [2]
1 | CC[C@H](C)[C@H](NC(=O)CN)C(=O)N[C@H](C(=O)N[C@@H](CCC(=O)O)C(=O)N[C@@H](CCC(N)=O)C(=O)N[C@H]1CSSC[C@@H](C(=O)N[C@@H](CO)C(=O)N[C@@H](CC(C)C)C(=O)N[C@@H](Cc2ccc(O)cc2)C(=O)O)NC(=O)[C@H]([C@@H](C)CC)NC(=O)[C@H](CO)NC(=O)[C@H]([C@@H](C)O)NC(=O)[C@H](CSSC[C@H](NC(=O)[C@H](CC(C)C)NC(=O)[C@H](Cc2c[nH]cn2)NC(=O)[C@H](CCC(N)=O)NC(=O)[C@H](CC(N)=O)NC(=O)[C@@H](NC(=O)[C@@H](N)Cc2ccccc2)C(C)C)C(=O)NCC(=O)N[C@@H](CO)C(=O)N[C@@H](Cc2c[nH]cn2)C(=O)N[C@@H](CC(C)C)C(=O)N[C@H](C(=O)N[C@@H](CCC(=O)O)C(=O)N[C@@H](C)C(=O)N[C@@H](CC(C)C)C(=O)N[C@@H](Cc2ccc(O)cc2)C(=O)O)C(C)C)NC1=O)C(C)C [F001] (I: H-FVNQHLCGSHLVEALY-OH / II: H-GIVEQCCTSICSLY-OH; disulfide I:7-II:7, II:6-II:11) | 93.2 ± 0.4 | 61.6 ± 1.2 | 78.5 ± 3.8 | same affinity as insuline frogments obtained in Example 1 and 2 | showed affinity | 
2 | (B25-30) pentapeptide deficient-[Phe^B25 -α-carboxyamide]insulin |  |  |  |  |  | acts as potently as natural insulin
